As a reminder, the MIC is the lowest concentration that inhibits growth of the organism. Low readings indicate greater potency, high ones weaker potency. One may read the MBC as the lowest tested concentration that kills the bacteria rather than only halting them. Low values mean more potent killing, high ones less potent killing.

In brackets after ≈: the same amount, converted by molar mass. Where a SMILES comes first, the peptide text is derived from it. [ ]: non-standard residue; d: D form.

The source of these data is article PMC5474674, “D-BMAP18 Antimicrobial Peptide Is Active In vitro, Resists to Pulmonary Proteases but Loses Its Activity in a Murine Model of Pseudomonas aeruginosa Lung Infection” (Frontiers in Chemistry, 2017).

The subject of data set [1] is C57BL/6NCrl mice. The data set can be described thus: In vivo acute toxicity, intratracheal. Also on record: species or system mouse. As for the experimental part: In vivo acute toxicity of D-BMAP18 was evaluated in C57BL/6NCrl mice (n = 5/group) (male; 22 g; 6 ± 2 week-old) obtained from Charles River Laboratories Italia S.r.l. (Calco, Milan, Italy). Mice were intra-tracheally challenged with increasing doses (1, 2, 4, and 8 mg/kg) of D-BMAP18 prepared in sterile distilled water. Control mice received vehicle only (sterile distilled water). General health and animal behavior (ruffled coats, huddled position, lack of retreat in handler's presence), weight loss, and survival were monitored daily over a 5-day period, comparatively to control mice. […] Subsequently, lungs were removed en bloc from the chest via sterile excision and immediately weighed. These experiments were carried out in accordance with the recommendations of the Guide for the Care and Use of Laboratory Animals of the National Institute of Health and in accordance with the ethical standards of the Animal Care Committee of the “G. d'Annunzio” University of Chieti-Pescara. The protocol was approved by the Animal Care Committee of the “G. d'Annunzio” University of Chieti-Pescara.

Data set [2] concerns P. aeruginosa PA05. The data set can be described thus: MIC/MBC broth microdilution. To be noted: D-BMAP18, strain PA05, n = 6. The format is cell-based, Pseudomonas aeruginosa. Here is the method:
(§1) MIC values were determined using the broth microdilution method.

For data set [3], the system named is P. aeruginosa PA14. The data set can be described thus: MIC/MBC broth microdilution. The note with it: D-BMAP18, strain PA14, n = 6. The format is cell-based, Pseudomonas aeruginosa. Here is the method: as §1
Data set [4] has as its system P. aeruginosa PA31. Kind of data set: MIC/MBC broth microdilution. To be noted: D-BMAP18, strain PA31, n = 6. In kind it is cell-based, Pseudomonas aeruginosa. As for the experimental part:
as §1

Data set [5] deals with P. aeruginosa RP73. The data set can be described thus: MIC/MBC broth microdilution. To be noted: D-BMAP18, strain RP73, n = 6. In kind it is cell-based, Pseudomonas aeruginosa. Here is the method: as §1
In general terms: Dilution methods test growth across graded concentrations, often in twofold steps.

The test system of data set [6] is P. aeruginosa PA07. The data set can be described thus: MIC/MBC broth microdilution. In kind it is cell-based, Pseudomonas aeruginosa. The note with it: D-BMAP18, strain PA07, n = 6. As for the experimental part: as §1
In data set [7] the test system is P. aeruginosa PA09. Kind of data set: MIC/MBC broth microdilution. The format is cell-based, Pseudomonas aeruginosa. To be noted: D-BMAP18, strain PA09, n = 6. As for the experimental part:
as §1

The test system of data set [8] is P. aeruginosa PA08. Kind of data set: MIC/MBC broth microdilution. In kind it is cell-based, Pseudomonas aeruginosa. The note with it: D-BMAP18, strain PA08, n = 6. As for the experimental part: as §1
Data set [9] concerns P. aeruginosa PA21. Kind of data set: MIC/MBC broth microdilution. In kind it is cell-based, Pseudomonas aeruginosa. To be noted: D-BMAP18, strain PA21, n = 6. Here is the method:
as §1

Data set [10] relates to P. aeruginosa PA03. The data set can be described thus: MIC/MBC broth microdilution. The format is cell-based, Pseudomonas aeruginosa. The note with it: D-BMAP18, strain PA03, n = 6. Here is the method:
as §1

The mark [11] stands for this setting: broth microdilution, MH broth, 37°C 24 h.
Where [12] appears, read: kills at least 99.9% of inoculum.

Consider `CC(C)C[C@@H](NC(=O)[C@@H](CCCCN)NC(=O)[C@@H](CCCCN)NC(=O)[C@@H](Cc1ccccc1)NC(=O)[C@@H](CC(C)C)NC(=O)[C@@H](CCCCN)NC(=O)[C@@H](CCCCN)NC(=O)[C@@H](Cc1ccccc1)NC(=O)[C@@H](CCCCN)NC(=O)[C@@H](CCCCN)NC(=O)[C@@H](CCCNC(=N)N)NC(=O)[C@@H](Cc1ccccc1)NC(=O)[C@@H](CCCNC(=N)N)NC(=O)[C@@H](CCCCN)NC(=O)[C@@H](Cc1ccccc1)NC(=O)[C@@H](CCCNC(=N)N)NC(=O)CN)C(=O)N[C@H](CO)C(N)=O` [D-BMAP18] (H-G[dR][dF][dK][dR][dF][dR][dK][dK][dF][dK][dK][dL][dF][dK][dK][dL][dS]-NH2), for which the “macroscopic lung pathology (four-point score)” value in [1] (1 mg/kg single intratracheal instillation, day 5 p.e., n = 5/group) is “No pulmonary damage”. The “macroscopic lung pathology, median score (four-point scoring)” value in [1] (2 mg/kg single intratracheal instillation, day 5 p.e., n = 5/group, p < 0.05 vs control) is 2.5; in data set [1] (8 mg/kg single intratracheal instillation, day 5 p.e., n = 5/group, p < 0.01 vs control), 3. The “change in body weight, first 2 days” value in [1] (1, 2, 4, 8 mg/kg intratracheal, first 2 days p.e., regardless of dose, vs unexposed control) is reported as “significant (p<0.01) decrease”. In addition, in data set [1] (1-8 mg/kg intratracheal, over 5 days p.e., also at the lowest dose, dose-dependent), the “change in body weight” value is “significant reduction in body weight”. The MIC in [2] (setting [11]) amounted to 4 µg/mL (≈ 1.71 µM); in data set [3] (setting [11]), 16 µg/mL (≈ 6.83 µM); in data set [4] (setting [11]) it was 16 µg/mL (≈ 6.83 µM); in [5] (setting [11]) it was 4 µg/mL (≈ 1.71 µM); in data set [6] (setting [11]) it was 8 µg/mL (≈ 3.42 µM); in [7] (setting [11]), 16 µg/mL (≈ 6.83 µM). The MIC in data set [8] (setting [11]) is 8 µg/mL (≈ 3.42 µM); in data set [9] (setting [11]) it was 16 µg/mL (≈ 6.83 µM); in data set [10] (setting [11]) it was 8 µg/mL (≈ 3.42 µM). In addition, the MBC in data set [2] (setting [12]) stood at 8 µg/mL (≈ 3.42 µM); in data set [3] (setting [12]) it was 32 µg/mL (≈ 13.7 µM); in data set [4] (setting [12]), 32 µg/mL (≈ 13.7 µM); in data set [5] (setting [12]), 8 µg/mL (≈ 3.42 µM); in data set [6] (setting [12]) it was 8 µg/mL (≈ 3.42 µM); in data set [7] (setting [12]) it was 32 µg/mL (≈ 13.7 µM). The MBC was 16 µg/mL (≈ 6.83 µM) in [8] (setting [12]), 32 µg/mL (≈ 13.7 µM) in data set [9] (setting [12]) and 8 µg/mL (≈ 3.42 µM) in data set [10] (setting [12]).
